From patent US20070212745A1, “BETA-GLUCOSIDASE AND A PROCESS FOR EXTRACTION THEREOF” (priority 2006, published 2007)

System: β glucosidase
Experiment: Effect of FeSO4 on β glucosidase
Format: biochemical, Rauvolfia serpentina
Settings: for Fold activity enhanced: relative to 0 mM
Procedure: Rauvolfia serpentina (Sarpgandha) plants were raised from root cuttings at the glass house of Central Institute of Medicinal and Aromatic Plants (CIMAP), Lucknow by following standard agronomic practices. The extraction of the glucosidase enzyme was optimized with respect to buffer, pH, protecting and stabilizing agents to obtain maximum extractable activity. All the operations of enzyme isolation were carried out at 0-4° C. unless specified otherwise. The extraction medium of present invention also relates to a process for the extraction of a B glucosidase from plant tissues from a natural source and useful for the cleaving of β-1,4 linkage of PNPG, said process comprising: homogenizing the plant tissue in a cold extraction medium (1 g tissue/3 ml). Flowers of Rauvolfia serpentina were homogenized in 100 mM K-phosphate buffer (pH 6.0) including 10 mM β-Mercapto ethanol and 2 mM E.D.T.A. (Ethylene Diamine Tetra Acetic Acid). The tissue homogenate was centrifuged at 12,000×g for 30 min at 4° C. and the clear supernatant was collected. Assays specific for the determination of optimum pH, optimum temperature, stability and activation were performed.
Enzyme activity was assayed using the modified method described by Stevens et al, assay mixture in a total volume of 200 μL contained 2.5 mM p-nitrophenyl β-D-glucopyranoside in 100 mM Citrate-Phosphate buffer (pH 5) at defined temperatures with 10 μL of enzyme preparation. After 15 min of incubation time the reaction was stopped by adding 800 μL of 1M Sodium carbonate and the absorbance of p-nitrophenol (the product of reaction) was measured at wavelength 405 nm.
Calculation of Units: The enzyme activity was expressed in terms of μmole of p-nitrophenol formed per minute using the molar extinction coefficient (E) 18,350 m^−1 cm^−1 [Estibalitz, O., Richard, O. A., and Ioannis, Z., 2001. The role of β-glucosidase in biosynthesis of 2,5-dimethyl-4-hydroxy-3 (2H)-furanone in strawberry. Flavour and Fragrance J., 16: 81-84.]

O=S(=O)([O-])[O-].[Fe+2] [FeSO4]
β glucosidase Activity (I.U.) (FeSO4 Conc. 1 mM): 71.93 I.U. | Fold activity enhanced (FeSO4 Conc. 1 mM): 1.74 Fold | β glucosidase Activity (I.U.) (FeSO4 Conc. 5 mM): 335.69 I.U. | Fold activity enhanced (FeSO4 Conc. 5 mM): 8.11 Fold | β glucosidase Activity (I.U.) (FeSO4 Conc. 10 mM): 627.79 I.U. | Fold activity enhanced (FeSO4 Conc. 10 mM): 15.16 Fold | effect of FeSO4 on enzyme activity (in words): activation
